Measurements: patent US10765114B2, “4-amino-6-(pyridyl and 2-substitutedphenyl)-picolinates and 6-amino-2-(pyridyl and 2-substitutedphenyl)-pyrimidine-4-carboxylates and their use as herbicides” (Dow AgroSciences LLC, priority 2013, dated 2020)

These compounds were tested on Key Broadleaf Weed and Crop Species (assay: Post-Emergent Test II (Table 5)). Conditions: Abutilon theophrasti, post-emergence, 336 h, ABUTH: velvetleaf (Abutilon theophrasti), application rate 70 (kg ai/ha; footnote: g ai/ha), read-out: Visual Growth Reduction (%) 14 Days After Application ABUTH.
Assay type: in vivo
Outline: (§1)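 Visual injury ratings (0 = no injury, 100 = complete kill) taken 14 days after treatment, relative to untreated controls. Compounds, in an acetone/DMSO aqueous carrier with crop oil and surfactant, were applied by track sprayer at 187 L/ha, in a twofold dilution series from the top rate, to plants at the first to second true-leaf stage.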

Row | Compound | pest or weed control at 70 g/ha [%]
1 | Nc1cc(-c2ccc(Cl)c(F)c2C(=O)O)nc(C(=O)O)c1Cl [Compound 56, 4-Amino-6-(2-carboxy-4-chloro-3-fluorophenyl)-3-chloropicolinic acid] | 0 to 29

Same assay, conditions: Abutilon theophrasti, post-emergence, 336 h, ABUTH: velvetleaf (Abutilon theophrasti), application rate 140 (kg ai/ha; footnote: g ai/ha), read-out: Visual Growth Reduction (%) 14 Days After Application ABUTH

Row | Compound | pest or weed control at 140 g/ha [%]
2 | Nc1cc(-c2ccc(Cl)c(F)c2C(=O)O)nc(C(=O)O)c1Cl [Compound 56, 4-Amino-6-(2-carboxy-4-chloro-3-fluorophenyl)-3-chloropicolinic acid] | 0 to 29

Same assay, conditions: Amaranthus retroflexus, post-emergence, 336 h, AMARE: redroot pigweed (Amaranthus retroflexus), application rate 70 (kg ai/ha; footnote: g ai/ha), read-out: Visual Growth Reduction (%) 14 Days After Application AMARE

Row | Compound | pest or weed control at 70 g/ha [%]
3 | Nc1cc(-c2ccc(Cl)c(F)c2C(=O)O)nc(C(=O)O)c1Cl [Compound 56, 4-Amino-6-(2-carboxy-4-chloro-3-fluorophenyl)-3-chloropicolinic acid] | 0 to 29

Same assay, conditions: Amaranthus retroflexus, post-emergence, 336 h, AMARE: redroot pigweed (Amaranthus retroflexus), application rate 140 (kg ai/ha; footnote: g ai/ha), read-out: Visual Growth Reduction (%) 14 Days After Application AMARE

Row | Compound | pest or weed control at 140 g/ha [%]
4 | Nc1cc(-c2ccc(Cl)c(F)c2C(=O)O)nc(C(=O)O)c1Cl [Compound 56, 4-Amino-6-(2-carboxy-4-chloro-3-fluorophenyl)-3-chloropicolinic acid] | 0 to 29

Same assay, conditions: Brassica napus, post-emergence, 336 h, BRSSS: oilseed rape, canola (Brassica napus), application rate 70 (kg ai/ha; footnote: g ai/ha), read-out: Visual Growth Reduction (%) 14 Days After Application BRSSS

Row | Compound | pest or weed control at 70 g/ha [%]
5 | Nc1cc(-c2ccc(Cl)c(F)c2C(=O)O)nc(C(=O)O)c1Cl [Compound 56, 4-Amino-6-(2-carboxy-4-chloro-3-fluorophenyl)-3-chloropicolinic acid] | 0 to 29

Same assay, conditions: Brassica napus, post-emergence, 336 h, BRSSS: oilseed rape, canola (Brassica napus), application rate 140 (kg ai/ha; footnote: g ai/ha), read-out: Visual Growth Reduction (%) 14 Days After Application BRSSS

Row | Compound | pest or weed control at 140 g/ha [%]
6 | Nc1cc(-c2ccc(Cl)c(F)c2C(=O)O)nc(C(=O)O)c1Cl [Compound 56, 4-Amino-6-(2-carboxy-4-chloro-3-fluorophenyl)-3-chloropicolinic acid] | 0 to 29

Same assay, conditions: Chenopodium album, post-emergence, 336 h, CHEAL: lambsquarters (Chenopodium album), application rate 70 (kg ai/ha; footnote: g ai/ha), read-out: Visual Growth Reduction (%) 14 Days After Application CHEAL

Row | Compound | pest or weed control at 70 g/ha [%]
7 | Nc1cc(-c2ccc(Cl)c(F)c2C(=O)O)nc(C(=O)O)c1Cl [Compound 56, 4-Amino-6-(2-carboxy-4-chloro-3-fluorophenyl)-3-chloropicolinic acid] | 45 to 59

Same assay, conditions: Chenopodium album, post-emergence, 336 h, CHEAL: lambsquarters (Chenopodium album), application rate 140 (kg ai/ha; footnote: g ai/ha), read-out: Visual Growth Reduction (%) 14 Days After Application CHEAL

Row | Compound | pest or weed control at 140 g/ha [%]
8 | Nc1cc(-c2ccc(Cl)c(F)c2C(=O)O)nc(C(=O)O)c1Cl [Compound 56, 4-Amino-6-(2-carboxy-4-chloro-3-fluorophenyl)-3-chloropicolinic acid] | 75 to 84

Same assay, conditions: Euphorbia heterophylla, post-emergence, 336 h, EPHHL: wild poinsettia (Euphorbia heterophylla), application rate 70 (kg ai/ha; footnote: g ai/ha), read-out: Visual Growth Reduction (%) 14 Days After Application EPHHL

Row | Compound | pest or weed control at 70 g/ha [%]
9 | Nc1cc(-c2ccc(Cl)c(F)c2C(=O)O)nc(C(=O)O)c1Cl [Compound 56, 4-Amino-6-(2-carboxy-4-chloro-3-fluorophenyl)-3-chloropicolinic acid] | 0 to 29

Same assay, conditions: Euphorbia heterophylla, post-emergence, 336 h, EPHHL: wild poinsettia (Euphorbia heterophylla), application rate 140 (kg ai/ha; footnote: g ai/ha), read-out: Visual Growth Reduction (%) 14 Days After Application EPHHL

Row | Compound | pest or weed control at 140 g/ha [%]
10 | Nc1cc(-c2ccc(Cl)c(F)c2C(=O)O)nc(C(=O)O)c1Cl [Compound 56, 4-Amino-6-(2-carboxy-4-chloro-3-fluorophenyl)-3-chloropicolinic acid] | 0 to 29

Same assay, conditions: Helianthus annuus, post-emergence, 336 h, HELAN: sunflower (Helianthus annuus), application rate 70 (kg ai/ha; footnote: g ai/ha), read-out: Visual Growth Reduction (%) 14 Days After Application HELAN

Row | Compound | pest or weed control at 70 g/ha [%]
11 | Nc1cc(-c2ccc(Cl)c(F)c2C(=O)O)nc(C(=O)O)c1Cl [Compound 56, 4-Amino-6-(2-carboxy-4-chloro-3-fluorophenyl)-3-chloropicolinic acid] | 0 to 29

Same assay, conditions: Helianthus annuus, post-emergence, 336 h, HELAN: sunflower (Helianthus annuus), application rate 140 (kg ai/ha; footnote: g ai/ha), read-out: Visual Growth Reduction (%) 14 Days After Application HELAN

Row | Compound | pest or weed control at 140 g/ha [%]
12 | Nc1cc(-c2ccc(Cl)c(F)c2C(=O)O)nc(C(=O)O)c1Cl [Compound 56, 4-Amino-6-(2-carboxy-4-chloro-3-fluorophenyl)-3-chloropicolinic acid] | 0 to 29

Same assay, conditions: Viola tricolor, post-emergence, 336 h, VIOTR: wild pansy (Viola tricolor), application rate 70 (kg ai/ha; footnote: g ai/ha), read-out: Visual Growth Reduction (%) 14 Days After Application VIOTR

Row | Compound | pest or weed control at 70 g/ha [%]
13 | Nc1cc(-c2ccc(Cl)c(F)c2C(=O)O)nc(C(=O)O)c1Cl [Compound 56, 4-Amino-6-(2-carboxy-4-chloro-3-fluorophenyl)-3-chloropicolinic acid] | 0 to 29

Same assay, conditions: Viola tricolor, post-emergence, 336 h, VIOTR: wild pansy (Viola tricolor), application rate 140 (kg ai/ha; footnote: g ai/ha), read-out: Visual Growth Reduction (%) 14 Days After Application VIOTR

Row | Compound | pest or weed control at 140 g/ha [%]
14 | Nc1cc(-c2ccc(Cl)c(F)c2C(=O)O)nc(C(=O)O)c1Cl [Compound 56, 4-Amino-6-(2-carboxy-4-chloro-3-fluorophenyl)-3-chloropicolinic acid] | 0 to 29

The compounds below were run on Key Grass and Sedge Weeds as well as Grass Crops (assay: Post-Emergent Test II (Table 6)). Conditions: post-emergence, 336 h, CYPSS, 70 g ai/ha, 14 days after application, read-out: Visual Growth Reduction (%) 14 Days After Application CYPSS.
Assay type: in vivo
Outline: as §1

Row | Compound | pest or weed control at 70 g/ha [%]
15 | Nc1cc(-c2ccc(Cl)c(F)c2C(=O)O)nc(C(=O)O)c1Cl [Compound 56, 4-Amino-6-(2-carboxy-4-chloro-3-fluorophenyl)-3-chloropicolinic acid] | 0 to 29

Same assay, conditions: post-emergence, 336 h, CYPSS, 140 g ai/ha, 14 days after application, read-out: Visual Growth Reduction (%) 14 Days After Application CYPSS

Row | Compound | pest or weed control at 140 g/ha [%]
16 | Nc1cc(-c2ccc(Cl)c(F)c2C(=O)O)nc(C(=O)O)c1Cl [Compound 56, 4-Amino-6-(2-carboxy-4-chloro-3-fluorophenyl)-3-chloropicolinic acid] | 0 to 29

Same assay, conditions: post-emergence, 336 h, DIGSA: crabgrass (Digitaria sanguinalis), 70 g ai/ha, 14 days after application, read-out: Visual Growth Reduction (%) 14 Days After Application DIGSA

Row | Compound | pest or weed control at 70 g/ha [%]
17 | Nc1cc(-c2ccc(Cl)c(F)c2C(=O)O)nc(C(=O)O)c1Cl [Compound 56, 4-Amino-6-(2-carboxy-4-chloro-3-fluorophenyl)-3-chloropicolinic acid] | 0 to 29

Same assay, conditions: post-emergence, 336 h, DIGSA: crabgrass (Digitaria sanguinalis), 140 g ai/ha, 14 days after application, read-out: Visual Growth Reduction (%) 14 Days After Application DIGSA

Row | Compound | pest or weed control at 140 g/ha [%]
18 | Nc1cc(-c2ccc(Cl)c(F)c2C(=O)O)nc(C(=O)O)c1Cl [Compound 56, 4-Amino-6-(2-carboxy-4-chloro-3-fluorophenyl)-3-chloropicolinic acid] | 0 to 29

Same assay, conditions: post-emergence, 336 h, ECHSS, 70 g ai/ha, 14 days after application, read-out: Visual Growth Reduction (%) 14 Days After Application ECHSS

Row | Compound | pest or weed control at 70 g/ha [%]
19 | Nc1cc(-c2ccc(Cl)c(F)c2C(=O)O)nc(C(=O)O)c1Cl [Compound 56, 4-Amino-6-(2-carboxy-4-chloro-3-fluorophenyl)-3-chloropicolinic acid] | 0 to 29

Same assay, conditions: post-emergence, 336 h, ECHSS, 140 g ai/ha, 14 days after application, read-out: Visual Growth Reduction (%) 14 Days After Application ECHSS

Row | Compound | pest or weed control at 140 g/ha [%]
20 | Nc1cc(-c2ccc(Cl)c(F)c2C(=O)O)nc(C(=O)O)c1Cl [Compound 56, 4-Amino-6-(2-carboxy-4-chloro-3-fluorophenyl)-3-chloropicolinic acid] | 0 to 29

Same assay, conditions: post-emergence, 336 h, ORYSS (crop), 70 g ai/ha, 14 days after application, read-out: Visual Growth Reduction (%) 14 Days After Application ORYSS

Row | Compound | pest or weed control at 70 g/ha [%]
21 | Nc1cc(-c2ccc(Cl)c(F)c2C(=O)O)nc(C(=O)O)c1Cl [Compound 56, 4-Amino-6-(2-carboxy-4-chloro-3-fluorophenyl)-3-chloropicolinic acid] | 0 to 29

Same assay, conditions: post-emergence, 336 h, ORYSS (crop), 140 g ai/ha, 14 days after application, read-out: Visual Growth Reduction (%) 14 Days After Application ORYSS

Row | Compound | pest or weed control at 140 g/ha [%]
22 | Nc1cc(-c2ccc(Cl)c(F)c2C(=O)O)nc(C(=O)O)c1Cl [Compound 56, 4-Amino-6-(2-carboxy-4-chloro-3-fluorophenyl)-3-chloropicolinic acid] | 0 to 29

Same assay, conditions: post-emergence, 336 h, SETFA: giant foxtail (Setaria faberi), 70 g ai/ha, 14 days after application, read-out: Visual Growth Reduction (%) 14 Days After Application SETFA

Row | Compound | pest or weed control at 70 g/ha [%]
23 | Nc1cc(-c2ccc(Cl)c(F)c2C(=O)O)nc(C(=O)O)c1Cl [Compound 56, 4-Amino-6-(2-carboxy-4-chloro-3-fluorophenyl)-3-chloropicolinic acid] | 0 to 29

Same assay, conditions: post-emergence, 336 h, SETFA: giant foxtail (Setaria faberi), 140 g ai/ha, 14 days after application, read-out: Visual Growth Reduction (%) 14 Days After Application SETFA

Row | Compound | pest or weed control at 140 g/ha [%]
24 | Nc1cc(-c2ccc(Cl)c(F)c2C(=O)O)nc(C(=O)O)c1Cl [Compound 56, 4-Amino-6-(2-carboxy-4-chloro-3-fluorophenyl)-3-chloropicolinic acid] | 0 to 29

Same assay, conditions: post-emergence, 336 h, SORVU: grain sorghum (Sorghum vulgare), 70 g ai/ha, 14 days after application, read-out: Visual Growth Reduction (%) 14 Days After Application SORVU

Row | Compound | pest or weed control at 70 g/ha [%]
25 | Nc1cc(-c2ccc(Cl)c(F)c2C(=O)O)nc(C(=O)O)c1Cl [Compound 56, 4-Amino-6-(2-carboxy-4-chloro-3-fluorophenyl)-3-chloropicolinic acid] | 0 to 29

Same assay, conditions: post-emergence, 336 h, SORVU: grain sorghum (Sorghum vulgare), 140 g ai/ha, 14 days after application, read-out: Visual Growth Reduction (%) 14 Days After Application SORVU

Row | Compound | pest or weed control at 140 g/ha [%]
26 | Nc1cc(-c2ccc(Cl)c(F)c2C(=O)O)nc(C(=O)O)c1Cl [Compound 56, 4-Amino-6-(2-carboxy-4-chloro-3-fluorophenyl)-3-chloropicolinic acid] | 0 to 29

Same assay, conditions: post-emergence, 336 h, TRZSS (crop), 70 g ai/ha, 14 days after application, read-out: Visual Growth Reduction (%) 14 Days After Application TRZSS

Row | Compound | pest or weed control at 70 g/ha [%]
27 | Nc1cc(-c2ccc(Cl)c(F)c2C(=O)O)nc(C(=O)O)c1Cl [Compound 56, 4-Amino-6-(2-carboxy-4-chloro-3-fluorophenyl)-3-chloropicolinic acid] | 0 to 29

Same assay, conditions: post-emergence, 336 h, TRZSS (crop), 140 g ai/ha, 14 days after application, read-out: Visual Growth Reduction (%) 14 Days After Application TRZSS

Row | Compound | pest or weed control at 140 g/ha [%]
28 | Nc1cc(-c2ccc(Cl)c(F)c2C(=O)O)nc(C(=O)O)c1Cl [Compound 56, 4-Amino-6-(2-carboxy-4-chloro-3-fluorophenyl)-3-chloropicolinic acid] | 0 to 29

Same assay, conditions: post-emergence, 336 h, ZEAMX: maize, corn (Zea mays), 70 g ai/ha, 14 days after application, read-out: Visual Growth Reduction (%) 14 Days After Application ZEAMX

Row | Compound | pest or weed control at 70 g/ha [%]
29 | Nc1cc(-c2ccc(Cl)c(F)c2C(=O)O)nc(C(=O)O)c1Cl [Compound 56, 4-Amino-6-(2-carboxy-4-chloro-3-fluorophenyl)-3-chloropicolinic acid] | 0 to 29

Same assay, conditions: post-emergence, 336 h, ZEAMX: maize, corn (Zea mays), 140 g ai/ha, 14 days after application, read-out: Visual Growth Reduction (%) 14 Days After Application ZEAMX

Row | Compound | pest or weed control at 140 g/ha [%]
30 | Nc1cc(-c2ccc(Cl)c(F)c2C(=O)O)nc(C(=O)O)c1Cl [Compound 56, 4-Amino-6-(2-carboxy-4-chloro-3-fluorophenyl)-3-chloropicolinic acid] | 0 to 29
